Patent US11649208B2, “Compounds and methods for treating alcohol disorder” (SOPHROSYNE PHARMACEUTICALS LIMITED, priority 2021, dated 2023)
In brackets after ≈: the same amount, converted by molar mass. Where two headings read alike, the source gives them in different places. Values belong to the molecule of their own block, whether it stands above or below them.

Experiments:
[1] = molecular target: T1, liver ALDH2 (Rattus norvegicus, UniProt P11884); test: In vivo ALDH2 enzymatic activity assay, ethanol challenge (Example 2); set-up: species or system rats (Sprague Dawley)
T1 construct: from tissue; host or cells: liver (left lateral lobe) lysate of Sprague Dawley (CD-IGS) rats
T1 sequence (P11884 20-519): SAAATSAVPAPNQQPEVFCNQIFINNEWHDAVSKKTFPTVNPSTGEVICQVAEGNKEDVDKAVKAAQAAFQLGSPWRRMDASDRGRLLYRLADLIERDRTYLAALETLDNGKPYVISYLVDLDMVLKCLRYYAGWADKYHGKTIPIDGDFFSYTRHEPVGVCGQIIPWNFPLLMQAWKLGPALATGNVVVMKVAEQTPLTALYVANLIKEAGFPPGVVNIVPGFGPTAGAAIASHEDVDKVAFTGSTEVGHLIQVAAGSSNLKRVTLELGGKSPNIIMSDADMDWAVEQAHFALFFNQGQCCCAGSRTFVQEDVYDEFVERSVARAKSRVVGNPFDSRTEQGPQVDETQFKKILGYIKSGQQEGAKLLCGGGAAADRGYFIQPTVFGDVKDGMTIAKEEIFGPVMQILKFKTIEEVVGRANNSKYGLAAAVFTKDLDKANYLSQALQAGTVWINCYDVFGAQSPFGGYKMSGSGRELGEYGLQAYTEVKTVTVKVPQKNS
Procedure: (§1) Sixty (60) male and sixty (60) female Sprague Dawley (CD-IGS) were obtained from Charles River Laboratories. All animals were housed under controlled conditions of temperature (72±8° F.), relative humidity (30-70%) and a 12-hour light-dark cycle (light from 6:00 AM to 6:00 PM). All animals were allowed free access to standard rodent chow (PicoLab Rodent Diet 20) and water (reverse osmosis, 0.2 μM filtered). Animals had at least a 3-day acclimation period prior to study.
Example 1-2 was synthesized by PharmAgra Labs, Lot #489PAL97; and stored at 4° C. and protected from light upon receipt. Example 1-2 dosing solutions were prepared by dissolving in PBS (pH 7.0) and thoroughly mixing via vortexing and sonication.
Example 1-15 was synthesized by PharmAgra Labs, Lot #505PAL17; and stored at 4° C. and protected from light upon receipt. Example 1-15 dosing solution was prepared by dissolving in PBS (pH 7.0) and thoroughly mixing via vortexing and sonication. The dosing formulation at concentration of 20 mg/mL was a clear solution.
Body weights of the animals in Groups 1-4 were obtained on Day 1. Body weights of the animals in Groups 5-8 were obtained on Days 1-3 respectively. Body weights of the animals in Groups 9-13 were obtained on Days 1, 4 and 5 respectively.
(§2) Animals were respectively administered vehicle and Example 1-2 at dosages of 2, 6.5 or 12 mg/kg via tail vein injection, once daily for 1 day (Groups 1-4), once daily for 3 days (Groups 5-8), or once daily for 5 days (Groups 9-12). For Group 13, animals were administered 20 mg/kg (on Day 1) or 12 mg/kg (on Days 2-5) dose via tail vein injection, once daily for 5 days. In some studies, the animals were administered a compound described herein for 10 days. In some studies, the animals were administered a compound described herein for 12 days. In some studies, the study was carried out with administered the compounds described herein including Example 1-2 racemate, Example 1-2A, Example 1-21B, Example 1-11 racemate, Example 1-11A, and/or Example 1-11B at a dosage of about 0.5, 1, 2, 4, and 8 mg.
Dosing volume (1 or 0.6 mL/kg) was calculated based on the body weight of the individual animal obtained on Day 1 (all groups), Days 2-3 (Groups 5-8), and Days 4-5 (Groups 9-13).
Ethanol (200PRF or 100% pure, non-denatured and no additives) was obtained from Fisher Scientific. The ethanol dosing solution was prepared fresh for each use. One (1) mL of ethanol was added to four (4) mL of saline (0.9% NaCl) in a glass vial and mixed by vortexing to create a uniform solution prior to administration. Animals were administered 20% ethanol at 1 g/kg (IP) 8 hours following the last dose of test article. Thirty (30) minutes following ethanol challenge, animals were euthanized with CO2. About 7 mL of whole blood was rapidly collected via vena cava for generation of serum samples for assays (Acetaldehyde assay by GPL and ALDH2 activity and protein assay by Eurofins). Blood samples were placed into serum separator tubes and maintained at room temperature for at least 30 minutes to allow clot formation prior to processing.
The left lateral lobe of liver was harvested and rinsed in cold saline to render a sample that was snap frozen in liquid nitrogen. Samples were stored at −80° C. until shipment. […]
The obtained serum samples as described herein were measured in singlicate for Acetaldehyde concentration using the Acetaldehyde Colorimetric Assay Kit (BioAssay Systems, #EACT-100), in accordance with manufacturer's instructions. […]

[2] = molecular target: T1, liver ALDH2; test: 10-day rat Pharmacology study, liver ALDH2 activity following ethanol challenge; type: in vivo
Procedure: as §2
Ethanol (200PRF or 100% pure, non-denatured and no additives) was obtained from Fisher Scientific. The ethanol dosing solution was prepared fresh for each use. One (1) mL of ethanol was added to four (4) mL of saline (0.9% NaCl) in a glass vial and mixed by vortexing to create a uniform solution prior to administration. Animals were administered 20% ethanol at 1 g/kg (IP) 8 hours following the last dose of test article. Thirty (30) minutes following ethanol challenge, animals were euthanized with CO2. […]

[3] = Solubility in CHCl3, DCM and DMSO by SFC/UV; type: physicochemical; details: organic solvent or mixture, thermodynamic from solid, room temperature
Procedure: The solubility in chloroform (CHCl3), dichloromethane (DCM) and dimethyl sulfoxide (DMSO) was determined at room temperature up to 50 mg/mL by measuring the concentrations of the solutions using SFC/UV. […] 200 mg Example 1-11B was weighed individually into three separate vials. 4 mL DMSO, 6 mL CHCl3 and 6 mL DCM were pipetted into the three vials containing Example 1-11B. The solutions were mixed and sonicated for 10 minutes. The DMSO solution was clear, and an aliquot was taken and diluted 100 times using MeOH before being subjected to SFC analysis. The saturated CHCl3 and DCM solutions were centrifuged, and the clear solution was diluted 100 times using MeOH before being subjected to SFC analysis:
Solubility measurement of up to 50 mg/mL in DMSO, CHCl3 and DCM was requested. […] At 50 mg/mL, Example 1-11B was not completely dissolved in CHCl3 or DCM solutions. After mixing and sonication, a clear aliquot of each solution was taken, and the concentrations of Example 1-11B in CHCl3 and DCM were measured by SFC/UV using the DMSO solution as a reference.

[4] = molecular target: T1, liver ALDH2; test: In vivo ALDH2 enzymatic activity assay with disulfiram comparison, ethanol challenge (Example 3); set-up: species or system rats (Sprague Dawley); details: for statistical significance of ALDH2 inhibitions: 2 mg/kg, 6.5 mg/kg and 12 mg/kg IV QD; for dose-activity response of ALDH2 inhibition: 2, 6.5, 12 mg/kg IV QD 3 days; for onset of inhibition of ALDH2 activity: after only 3-day administration; for ALDH2 inhibition versus Disulfiram at 3.57 mg/kg/day PO: after three days at 2 mg/kg/day IV
Procedure: as §1, with “Eighty-eight (88)” for “Sixty (60)”, “male” for “male and sixty (60) female”
30 mL disulfiram formulation were prepared. 64.2 mg of disulfiram was completely dissolved in 6 mL of DMSO to render a mixture. 0.3 mL of Tween 80 was then slowly added to the mixture. To the resulting mixture, 23.7 mL of PBS (1×, pH 5.0) was slowly added while stirring to render a dosing formulation. The dosing formulation was a fine suspension at concentration of 2.14 mg/mL. The final concentrations for DMSO and […] were 20% v/v and 1% v/v, respectively.
The dosing formulations of Example 1-4A, Example 1-4B3, and Example 1-2 and difulfiram were prepared with PBS (pH 7.0) by thoroughly mixing via vortexing and sonication.
Ethanol challenge study design and dosing groups of Example 1-4A, Example 1-48, and Example 1-2 and difulfiram are as shown in Table 3.
Animals in Group 1 was administered vehicle (PBS) via tail vein injection, once daily for 3 days. Animals in Group 2 was administered vehicle (PBS) disulfiram at 3.57 mg/kg via oral gavage (PO) once daily for 3 days. Animals in Groups 3-11 were respectively administered Example 1-4A at 2, 6.5, and 12 mg/kg, Example 1-4B at 2, 6.5, and 12 mg/kg, or Example 1-2 at 2, 6.5, and 12 mg/kg via tail vein injection, once daily for 3 days.
Dosing volume (1 or 1.67 mL/kg) was calculated based on the individual body weight obtained prior to the first dose of test article.
Ethanol (200PRF or 100% pure, non-denatured and no additives) was obtained from Fisher Scientific. Ethanol dosing solution (20% v/v in saline) was prepared by mixing one (1) part of ethanol and four (4) part of saline (0.9% NaCl) thoroughly to create a uniform solution prior to administration. Animals was administered 20% ethanol at 1 g/kg (IP) 8 hours following the third dose of test article. Thirty (30) minutes following ethanol challenge, animals were euthanized with CO2. About 2 mL of whole blood was rapidly collected via vena cava for generation of plasma samples. Blood samples were placed into K2 EDTA tubes and kept on wet ice prior to processing. Liver lysate generation, protein concentration determination, and ALDH2 activity assay were performed by Confluence Discovery Technologies (CDT). Protein concentrations were determined using the Pierce BCA Protein Assay Kit. ALDH2 Activity Assay using the Abcam assay kit #ab115348.

[5] = molecular target: T1, liver ALDH2; test: as above; set-up: species or system rats (Sprague Dawley); details: 2 mg/kg, 6.5 mg/kg and 12 mg/kg IV QD; printed 'after 5 days'

Structure (SMILES): C[S+]([O-])C(=O)N1CCC(O)CC1 (racemic) [Example 1-11, (4-hydroxypiperidin-1-yl)(methylsulfinyl)methanone]
- ALDH2 inhibition versus pure enantiomer Example 1-11A (FIG. 12) ([2]; 10 day administration at 2, 4 and 8 mg/kg, material with 66 wt % of Example 1-11B): greater ALDH2 inhibition than the pure enantiomer Example 1-11A

Structure (SMILES): CCN(CC)C(=O)[S+]([O-])CC1CC1 (single isomer, unassigned; peak-2) [Example 1-4B, 1-((cyclopropylmethyl)sulfinyl)-N,N-diethylmethanamide (Peak-2)]
- statistical significance of ALDH2 inhibitions [4]: statistically significant
- dose-activity response of ALDH2 inhibition [4]: A dose-activity response was observed
- onset of inhibition of ALDH2 activity [4]: fast activity onset
- ALDH2 inhibition versus Disulfiram at 3.57 mg/kg/day PO [4]: greater inhibition
- ALDH2 inhibition (FIG. 7) [5]: showed ALDH2 inhibitions

Structure (SMILES): CCN(CC)C(=O)[S@+](C)[O-] (single isomer, unassigned; peak-1) [Example 1-2A, (S )-N, N-diethyl-1 - (methylsulfinyl)methanamide (Peak-1)]
- ALDH2 inhibition, enantiomer versus other enantiomer (FIG. 12) ([2]; 10-day administration at 0.5, 1 and 2 mg/kg): greater ALDH2 inhibition compared the other enantiomer Example 1-2B

Now from value to molecule, other results behind:

- ALDH2 inhibition activity in comparison with the negative control group ([1]; 20 mg/kg (Day 1), 12 mg/kg (Days 2-5) tail vein injection QD 5 days, ethanol challenge): did not show any inhibition activity
- melting point: 71.2 to 74.5 °C
Structure (SMILES): CCN(CC)C(=O)[S+]([O-])CC[S+]([O-])C(=O)N(CC)CC (stereo not drawn) [Example 1-15, 1-1′-(ethane-1,2-diyldisulfinyl)bis(N,N-diethylmethanamide)]

- solubility at 10 min ([3]; chloroform (CHCl3), SFC/UV, read-out: solubility in CHCl3): 12.4 mg/mL (≈ 64.8 mM)
- solubility at 10 min ([3]; dichloromethane (DCM), SFC/UV, read-out: solubility in DCM): 12.3 mg/mL (≈ 64.3 mM)
- solubility at 10 min ([3]; dimethyl sulfoxide (DMSO), tested up to 50 mg/mL, read-out: solubility in DMSO): > 50 mg/mL
Structure (SMILES): C[S@+]([O-])C(=O)N1CCC(O)CC1 [Example 1-11B, (S)-(4-hydroxypiperidin-1-yl)(methylsulfinyl)methanone]

- statistical significance of ALDH2 inhibitions [4]: statistically significant
- dose-activity response of ALDH2 inhibition [4]: A dose-activity response was observed
- onset of inhibition of ALDH2 activity [4]: fast activity onset
- ALDH2 inhibition versus Disulfiram at 3.57 mg/kg/day PO [4]: greater inhibition
- ALDH2 inhibition (FIG. 7) [5]: showed ALDH2 inhibitions
Structure (SMILES): CCN(CC)C(=O)[S+](C)[O-] (racemic) [Example 1-2, N,N-diethyl-1-(methylsulfinyl)methanamide]
- ALDH2 inhibition after one (1) day administration ([1]; 6.5 mg/kg and 12 mg/kg IV, 1 day): statistically significant ALDH2 inhibitions were observed
- dose response and treatment-duration response in inhibiting ALDH2 activities ([1]; 2, 6.5 or 12 mg/kg tail vein injection QD for 1, 3 or 5 days, ethanol 1 g/kg IP 8 h after last dose): A dose response and a treatment-duration response were observed
- ALDH2 inhibition, treatment for 3 and 5 days ([1]; all doses (2, 6.5, 12 mg/kg) IV QD for 3 and 5 days): statistically significant ALDH2 inhibitions at all doses
- inhibition of liver ALDH2 activity (FIGS. 2 and 3) ([1]; dosages of 2 mg/kg, 6.5 mg/kg and 12 mg/kg IV QD): statistically significant effectiveness in inhibiting liver ALDH2 activity
